Activity calls are given as the source filed them.
Assays:
DNA topoisomerase = DNA topoisomerase (Yersinia pestis, UniProt A0A2S9PM60); assay: Yersinia topoisomerase I cleavage product accumulation – biochemical, cherry-pick, dose response (AID 588525)
Streptokinase A = target: T1, Streptokinase A (Streptococcus pyogenes serotype M1, UniProt P10520); assay: viability-normalized secreted streptokinase activity reduction – plasminogen activation absorbance, OD405, dose response (AID 1914); type: functional, Streptococcus pyogenes M1 GAS;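 also: secreted streptokinase activity via plasminogen activation per viability signal from cell pellet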
T1 sequence (P10520 whole entry): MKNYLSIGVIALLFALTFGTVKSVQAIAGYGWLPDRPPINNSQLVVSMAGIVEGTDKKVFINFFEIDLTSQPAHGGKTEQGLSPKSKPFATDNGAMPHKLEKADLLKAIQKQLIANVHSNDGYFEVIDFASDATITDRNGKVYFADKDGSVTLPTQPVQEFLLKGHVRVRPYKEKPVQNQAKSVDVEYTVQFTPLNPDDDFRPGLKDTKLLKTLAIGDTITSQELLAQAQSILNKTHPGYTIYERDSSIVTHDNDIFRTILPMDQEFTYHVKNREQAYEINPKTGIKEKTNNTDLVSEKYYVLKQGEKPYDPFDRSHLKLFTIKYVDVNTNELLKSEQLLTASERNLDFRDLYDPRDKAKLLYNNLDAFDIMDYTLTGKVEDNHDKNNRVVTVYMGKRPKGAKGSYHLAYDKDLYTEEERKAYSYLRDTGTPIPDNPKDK

[1] = tested on: Streptococcus sp. 'group A'; assay: Streptococcus pyogenes SK(-)GAS viability under kanamycin – luminescence, BacTiterGlo, confirmation, counter-screen for streptokinase expression inhibitor project, dose response (AID 1900); type: functional, organism-based
NS3 = NS3 (Hepatitis C virus, UniProt A3EZJ3); assay: PubChem AID 2173; set-up: species or system Hepacivirus hominis
Sequence of NS3 (A3EZJ3 whole entry): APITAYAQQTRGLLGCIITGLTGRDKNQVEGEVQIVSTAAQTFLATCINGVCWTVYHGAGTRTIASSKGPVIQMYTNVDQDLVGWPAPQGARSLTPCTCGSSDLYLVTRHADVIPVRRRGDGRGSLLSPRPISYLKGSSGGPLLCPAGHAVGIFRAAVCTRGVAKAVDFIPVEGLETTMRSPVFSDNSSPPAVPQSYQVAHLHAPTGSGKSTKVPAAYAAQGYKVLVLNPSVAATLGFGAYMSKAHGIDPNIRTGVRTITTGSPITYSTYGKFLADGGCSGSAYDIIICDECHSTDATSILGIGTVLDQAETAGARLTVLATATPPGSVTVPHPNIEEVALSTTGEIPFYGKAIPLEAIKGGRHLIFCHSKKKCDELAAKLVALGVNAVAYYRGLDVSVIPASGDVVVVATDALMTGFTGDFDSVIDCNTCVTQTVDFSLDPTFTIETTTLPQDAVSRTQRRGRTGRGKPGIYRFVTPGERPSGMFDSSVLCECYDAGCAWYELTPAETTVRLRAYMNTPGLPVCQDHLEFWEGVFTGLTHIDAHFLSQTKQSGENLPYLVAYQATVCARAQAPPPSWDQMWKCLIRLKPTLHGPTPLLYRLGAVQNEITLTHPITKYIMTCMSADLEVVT

Streptococcus = assay: GAS UMAA2166 growth inhibition – luminescence, BacTiterGlo, counter-screen for streptokinase expression inhibitor project, dose response (AID 1915); type: functional, organism-based;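 also: potency for reduction of bacterial viability or growth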
[2] = target: Induced myeloid leukemia cell differentiation protein Mcl-1 (Homo sapiens, UniProt Q07820); type: functional
Sequence of Induced myeloid leukemia cell differentiation protein Mcl-1 (Q07820 whole entry): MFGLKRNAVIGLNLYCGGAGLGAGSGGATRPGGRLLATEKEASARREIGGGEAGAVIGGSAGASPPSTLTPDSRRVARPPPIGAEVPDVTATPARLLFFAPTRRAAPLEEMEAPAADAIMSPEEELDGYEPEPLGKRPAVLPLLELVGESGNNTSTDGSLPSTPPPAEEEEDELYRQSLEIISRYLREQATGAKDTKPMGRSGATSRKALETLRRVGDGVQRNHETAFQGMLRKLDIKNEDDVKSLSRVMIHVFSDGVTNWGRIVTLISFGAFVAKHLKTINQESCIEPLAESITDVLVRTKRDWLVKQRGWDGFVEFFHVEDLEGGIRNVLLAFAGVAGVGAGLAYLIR

[3] = Luminescence Cell-Based Dose Response HTS to Identify Activators of Luciferase Translation or Activity in H4 […] Cells. [Related pubchem assays: 1829 (Project Summary), 1814 (Primary HTS)]; type: functional
[4] = target: T2, Replicative DNA helicase DnaB (Mycobacterium tuberculosis, UniProt P9WMR3); assay: DnaB intein splicing inhibitors, dose response, biochemical, cell-free fluorescence (AID 449749); type: functional
T2 sequence (P9WMR3 whole entry): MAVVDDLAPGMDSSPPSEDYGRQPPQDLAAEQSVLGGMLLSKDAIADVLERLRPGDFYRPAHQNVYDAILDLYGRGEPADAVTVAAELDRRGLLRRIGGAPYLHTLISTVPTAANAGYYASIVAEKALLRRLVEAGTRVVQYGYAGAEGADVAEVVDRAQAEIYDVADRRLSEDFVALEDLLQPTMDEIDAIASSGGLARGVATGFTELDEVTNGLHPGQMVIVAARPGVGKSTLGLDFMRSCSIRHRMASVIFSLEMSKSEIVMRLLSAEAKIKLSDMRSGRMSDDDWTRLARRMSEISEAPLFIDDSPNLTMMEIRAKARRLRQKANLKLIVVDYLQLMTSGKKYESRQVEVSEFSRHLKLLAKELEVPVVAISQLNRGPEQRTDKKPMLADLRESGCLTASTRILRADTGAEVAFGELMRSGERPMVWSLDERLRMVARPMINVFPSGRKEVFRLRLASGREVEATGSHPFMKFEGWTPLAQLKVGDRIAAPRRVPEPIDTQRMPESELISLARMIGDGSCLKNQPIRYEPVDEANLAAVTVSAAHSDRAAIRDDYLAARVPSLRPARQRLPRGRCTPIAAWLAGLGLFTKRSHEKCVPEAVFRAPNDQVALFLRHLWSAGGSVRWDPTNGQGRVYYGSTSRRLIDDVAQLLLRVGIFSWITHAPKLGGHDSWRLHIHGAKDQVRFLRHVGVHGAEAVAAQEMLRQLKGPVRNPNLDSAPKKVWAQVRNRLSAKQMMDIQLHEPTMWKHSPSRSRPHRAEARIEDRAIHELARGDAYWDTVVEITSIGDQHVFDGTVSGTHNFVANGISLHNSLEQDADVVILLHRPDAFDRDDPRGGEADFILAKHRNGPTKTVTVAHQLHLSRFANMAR

H4 = assay: Luminescence Cell-Based Dose Response HTS to Identify Activators of 5'UTR Stem-Loop Driven Prion Protein mRNA Translation in H4 Neuroglioblastoma Cells. [Related pubchem assays: 1829 (Project Summary), 1814 (Primary HTS)]; type: functional; conditions: Homo sapiens
[5] = target: T3, Polyadenylate-binding protein 1 (Homo sapiens, UniProt P11940); assay: MLLE binding blockers, Cy5 peptide tracer – biochemical, fluorescence polarization, Cy5-PAM2 peptide, secondary, miRNA deadenylation inhibitor project, dose response (AID 602260); type: functional; conditions: read-out: IC50_Mean
T3 sequence (P11940 whole entry): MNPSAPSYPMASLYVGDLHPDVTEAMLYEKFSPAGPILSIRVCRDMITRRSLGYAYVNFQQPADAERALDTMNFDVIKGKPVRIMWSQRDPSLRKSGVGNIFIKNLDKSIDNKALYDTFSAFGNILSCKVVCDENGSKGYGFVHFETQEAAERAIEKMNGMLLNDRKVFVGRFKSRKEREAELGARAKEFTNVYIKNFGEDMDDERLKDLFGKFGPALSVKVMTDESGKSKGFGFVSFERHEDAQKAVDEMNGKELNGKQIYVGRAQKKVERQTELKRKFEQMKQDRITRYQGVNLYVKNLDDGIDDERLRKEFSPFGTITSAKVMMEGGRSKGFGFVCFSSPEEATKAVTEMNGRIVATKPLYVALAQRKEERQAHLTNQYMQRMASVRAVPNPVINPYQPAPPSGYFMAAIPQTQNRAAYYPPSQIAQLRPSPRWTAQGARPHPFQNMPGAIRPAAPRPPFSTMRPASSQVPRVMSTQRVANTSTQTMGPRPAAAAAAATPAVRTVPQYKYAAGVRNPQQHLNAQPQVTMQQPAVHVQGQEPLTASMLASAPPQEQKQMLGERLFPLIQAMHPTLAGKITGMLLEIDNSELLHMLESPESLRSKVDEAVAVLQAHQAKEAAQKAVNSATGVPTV

[6] = mitochondrial function rescue without frataxin homolog – Friedreich's ataxia, plus single-dose screen, dose response (AID 1465); type: functional;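 also: yeast depleted of Yfh1p frataxin homolog grown on glycerol needing respiration; WST-1 tetrazolium dye reduction as measure of cellular dehydrogenase metabolic activity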
Protein RecA = target: T4, Protein RecA (Mycobacterium tuberculosis, UniProt P9WHJ3); assay: Fluorescence Cell-Free Homogeneous Dose Retest to Identify Inhibitors of RecA-Intein Splicing Activity. [Related pubchem assays (depositor defined):AID2097, AID2223, AID489010, AID492950]; type: functional
T4 sequence (P9WHJ3 whole entry): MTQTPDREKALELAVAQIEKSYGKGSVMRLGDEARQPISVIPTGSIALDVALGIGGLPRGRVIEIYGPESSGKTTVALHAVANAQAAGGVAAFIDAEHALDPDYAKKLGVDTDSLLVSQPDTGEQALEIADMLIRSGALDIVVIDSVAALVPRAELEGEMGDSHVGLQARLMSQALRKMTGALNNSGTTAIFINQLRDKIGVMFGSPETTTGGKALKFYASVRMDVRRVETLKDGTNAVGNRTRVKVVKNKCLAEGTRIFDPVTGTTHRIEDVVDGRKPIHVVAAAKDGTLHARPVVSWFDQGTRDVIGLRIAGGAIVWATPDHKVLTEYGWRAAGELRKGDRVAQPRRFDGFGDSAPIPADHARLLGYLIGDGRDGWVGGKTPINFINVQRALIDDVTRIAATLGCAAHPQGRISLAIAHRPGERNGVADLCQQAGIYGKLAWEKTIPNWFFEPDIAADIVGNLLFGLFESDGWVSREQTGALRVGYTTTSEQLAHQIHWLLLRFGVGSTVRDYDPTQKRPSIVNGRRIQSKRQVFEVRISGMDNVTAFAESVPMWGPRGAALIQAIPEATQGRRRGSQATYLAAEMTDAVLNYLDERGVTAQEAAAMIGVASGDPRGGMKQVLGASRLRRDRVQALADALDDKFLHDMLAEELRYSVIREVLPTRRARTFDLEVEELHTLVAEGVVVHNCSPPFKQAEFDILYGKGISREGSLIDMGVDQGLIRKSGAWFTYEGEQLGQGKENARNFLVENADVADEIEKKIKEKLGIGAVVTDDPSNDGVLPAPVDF

[7] = Luminescence Cell-Based Dose Confirmation HTS to Identify Activators of 5'UTR Stem-Loop Driven Alpha-Synuclein mRNA Translation in H4 Neuroglioblastoma Cells. [Related pubchem assays: 1829 (Project Summary), 1814 (Primary HTS)]; type: functional
Aminopeptidase N = target: T5, Aminopeptidase N (Plasmodium falciparum FcB1/Columbia, UniProt O96935); assay: malaria alanyl aminopeptidase activity blockers – biochemical, fluorogenic H-Leu-NHMec substrate, 1536-well (AID 1445); set-up: species or system Plasmodium falciparum 3D7, 3D7
T5 sequence (O96935 whole entry): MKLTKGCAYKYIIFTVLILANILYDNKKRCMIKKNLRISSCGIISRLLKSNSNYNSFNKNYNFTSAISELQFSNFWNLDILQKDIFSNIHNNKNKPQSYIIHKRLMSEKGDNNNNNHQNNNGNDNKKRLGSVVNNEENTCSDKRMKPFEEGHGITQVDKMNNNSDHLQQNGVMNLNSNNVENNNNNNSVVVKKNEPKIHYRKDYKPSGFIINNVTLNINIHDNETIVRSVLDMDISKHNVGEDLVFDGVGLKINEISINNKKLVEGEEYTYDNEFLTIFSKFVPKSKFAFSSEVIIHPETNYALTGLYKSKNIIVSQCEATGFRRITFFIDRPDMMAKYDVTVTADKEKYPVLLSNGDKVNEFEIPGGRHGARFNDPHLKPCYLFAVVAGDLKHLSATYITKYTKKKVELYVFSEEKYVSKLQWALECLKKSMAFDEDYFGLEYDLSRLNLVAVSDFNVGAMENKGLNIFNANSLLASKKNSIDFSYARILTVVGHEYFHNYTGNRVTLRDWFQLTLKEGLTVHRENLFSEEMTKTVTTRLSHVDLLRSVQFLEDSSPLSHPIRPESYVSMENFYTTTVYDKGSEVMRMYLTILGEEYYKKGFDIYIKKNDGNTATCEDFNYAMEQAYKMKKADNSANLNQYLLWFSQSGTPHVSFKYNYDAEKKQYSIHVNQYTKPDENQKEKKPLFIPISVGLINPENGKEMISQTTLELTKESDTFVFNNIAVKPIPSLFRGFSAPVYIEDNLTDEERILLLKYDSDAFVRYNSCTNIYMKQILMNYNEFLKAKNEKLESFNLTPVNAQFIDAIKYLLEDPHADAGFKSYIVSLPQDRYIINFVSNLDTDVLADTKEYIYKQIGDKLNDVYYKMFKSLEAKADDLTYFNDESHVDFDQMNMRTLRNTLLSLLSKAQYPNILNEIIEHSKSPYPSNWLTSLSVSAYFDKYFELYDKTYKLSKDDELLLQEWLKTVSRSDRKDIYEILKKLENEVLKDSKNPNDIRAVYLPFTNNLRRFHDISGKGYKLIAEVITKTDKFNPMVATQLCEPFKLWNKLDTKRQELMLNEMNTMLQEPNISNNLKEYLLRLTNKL

[8] = target: T3, Polyadenylate-binding protein 1; assay: MLLE domain peptide-binding blockers, IC50 – biochemical, fluorescence polarization, FITC-PAM2 peptide, dose response (AID 602259); type: functional; conditions: read-out: IC50_Mean
Genome polyprotein = Genome polyprotein (dengue virus type 2, UniProt P29990); assay: flavivirus cap methylation enzyme inhibition – biochemical, confirmation dose response, primary screen (AID 588689); type: functional
Sequence of Genome polyprotein (P29990 2492-3391 limits assumed): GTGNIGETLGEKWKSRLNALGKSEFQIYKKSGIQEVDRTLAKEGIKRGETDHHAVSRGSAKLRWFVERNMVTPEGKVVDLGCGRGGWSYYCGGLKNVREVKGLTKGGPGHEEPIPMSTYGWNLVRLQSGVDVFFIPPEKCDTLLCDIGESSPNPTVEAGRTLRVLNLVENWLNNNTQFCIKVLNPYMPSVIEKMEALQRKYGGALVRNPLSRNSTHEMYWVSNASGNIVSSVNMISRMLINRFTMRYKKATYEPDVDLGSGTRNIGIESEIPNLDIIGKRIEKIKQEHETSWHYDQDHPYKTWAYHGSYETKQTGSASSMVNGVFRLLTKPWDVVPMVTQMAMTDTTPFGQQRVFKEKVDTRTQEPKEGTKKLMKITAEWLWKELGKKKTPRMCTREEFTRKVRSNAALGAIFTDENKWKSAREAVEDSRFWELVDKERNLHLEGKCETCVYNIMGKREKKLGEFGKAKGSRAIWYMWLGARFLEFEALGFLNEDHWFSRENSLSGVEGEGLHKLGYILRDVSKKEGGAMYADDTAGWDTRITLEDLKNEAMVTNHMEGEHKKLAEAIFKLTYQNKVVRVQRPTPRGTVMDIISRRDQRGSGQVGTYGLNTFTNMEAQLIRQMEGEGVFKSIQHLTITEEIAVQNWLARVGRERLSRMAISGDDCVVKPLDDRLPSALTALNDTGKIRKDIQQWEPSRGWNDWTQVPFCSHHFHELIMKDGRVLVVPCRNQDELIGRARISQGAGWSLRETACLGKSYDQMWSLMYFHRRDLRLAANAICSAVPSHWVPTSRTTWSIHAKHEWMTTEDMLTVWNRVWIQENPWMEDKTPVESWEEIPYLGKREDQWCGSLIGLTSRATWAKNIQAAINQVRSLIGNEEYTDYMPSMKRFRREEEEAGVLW

[9] = target: Glucose-6-phosphate 1-dehydrogenase (Homo sapiens, UniProt P11413); assay: inhibition of Homo sapiens G6PD, dose series – biochemical, fluorescence, selectivity assay for P. falciparum G6PD inhibitor project, dose response (AID 504792); type: functional
Sequence of Glucose-6-phosphate 1-dehydrogenase (P11413 whole entry): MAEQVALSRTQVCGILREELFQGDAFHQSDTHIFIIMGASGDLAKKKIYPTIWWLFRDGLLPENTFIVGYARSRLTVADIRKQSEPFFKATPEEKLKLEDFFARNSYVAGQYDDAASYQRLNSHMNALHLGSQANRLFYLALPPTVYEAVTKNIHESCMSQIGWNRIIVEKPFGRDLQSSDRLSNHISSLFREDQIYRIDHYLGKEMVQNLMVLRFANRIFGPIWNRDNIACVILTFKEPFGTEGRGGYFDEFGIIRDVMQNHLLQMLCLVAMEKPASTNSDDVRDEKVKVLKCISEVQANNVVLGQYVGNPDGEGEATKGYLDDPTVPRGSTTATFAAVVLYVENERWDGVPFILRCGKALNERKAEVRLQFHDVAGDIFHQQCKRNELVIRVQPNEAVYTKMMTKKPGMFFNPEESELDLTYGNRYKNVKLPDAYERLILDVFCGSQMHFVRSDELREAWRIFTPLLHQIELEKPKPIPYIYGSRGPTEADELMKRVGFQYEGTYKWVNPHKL

Vero = assay: viability of Vero cells under compound – cytotoxicity control for flavivirus capping enzyme inhibitors (AID 588742); type: functional; conditions: Chlorocebus sabaeus

Sequence of DNA topoisomerase (A0A2S9PM60 whole entry): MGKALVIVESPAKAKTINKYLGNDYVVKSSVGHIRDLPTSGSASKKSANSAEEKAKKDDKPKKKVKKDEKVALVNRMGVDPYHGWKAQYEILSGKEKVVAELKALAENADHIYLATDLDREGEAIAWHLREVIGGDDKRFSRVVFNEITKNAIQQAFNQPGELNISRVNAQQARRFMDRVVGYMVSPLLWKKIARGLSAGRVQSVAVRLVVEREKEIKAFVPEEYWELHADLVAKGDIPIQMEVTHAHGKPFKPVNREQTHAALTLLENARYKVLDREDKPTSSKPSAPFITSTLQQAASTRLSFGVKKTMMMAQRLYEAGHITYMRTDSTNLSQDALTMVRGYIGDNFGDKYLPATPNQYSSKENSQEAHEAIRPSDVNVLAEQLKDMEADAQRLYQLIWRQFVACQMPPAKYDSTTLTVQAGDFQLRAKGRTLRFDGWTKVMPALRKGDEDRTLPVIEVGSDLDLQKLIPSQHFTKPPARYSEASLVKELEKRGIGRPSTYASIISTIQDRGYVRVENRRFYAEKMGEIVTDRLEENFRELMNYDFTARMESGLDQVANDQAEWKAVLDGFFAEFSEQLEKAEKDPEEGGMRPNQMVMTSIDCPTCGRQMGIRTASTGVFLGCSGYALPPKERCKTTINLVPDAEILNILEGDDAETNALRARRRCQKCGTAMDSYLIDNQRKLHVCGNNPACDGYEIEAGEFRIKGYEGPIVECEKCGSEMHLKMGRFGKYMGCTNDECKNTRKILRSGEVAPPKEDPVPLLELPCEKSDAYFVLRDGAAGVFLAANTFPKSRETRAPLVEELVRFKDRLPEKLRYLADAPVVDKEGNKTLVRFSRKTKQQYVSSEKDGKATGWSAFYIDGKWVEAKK

Row | Structure (SMILES) | AC50 (DNA topoisomerase) | EC50 (Streptokinase A) | EC50 [1] | IC50 (NS3) | EC50 (Streptococcus) | IC50 [2] | EC50 [3] | AC50 [4] | EC50 (H4) | IC50 [5] | EC50 [6] | EC50 (Protein RecA) | EC50 [7] | IC50 (Aminopeptidase N) | IC50 [8] | IC50 (Genome polyprotein) | IC50 [9] | CC50 (Vero)
1 | Cc1ccc(C2C(C(=O)c3cc4ccccc4o3)=C(O)C(=O)N2c2cc(C)on2)cc1 (stereo not drawn) | 8.86 µM (active) | 6.3 µM (active) | 2.28 µM (active) | 2.49 µM (active) | 6.76 µM (active) | – | – | – | – | – | – | – | – | – | – | – | – | –
2 | Cc1ccc(S(=O)(=O)/N=C2/C=C(C3C(=O)CC(C)(C)CC3=O)C(=O)c3ccccc32)cc1 | – | – | – | – | – | 2.13 µM (active) | 42.1 µM (active) | 113 µM (active) | 46.4 µM (active) | > 66 µM (inactive) | > 100 µM (active) | 3.22 µM (active) | 8.21 µM (active) | 34.5 µM (active) | > 66 µM (inactive) | 10.1 µM (active) | > 80 µM (inactive) | > 40 µM (active)
